Laboratory results reported in patent publication US8501953B2, “PKM2 modulators for use in the treatment of cancer” (Agios Pharmaceuticals, Inc, priority 2009, dated 2013).

Target: PKM2 (Homo sapiens, UniProt P14618)
Experiment: PKM2 Assay (activation; LDH-coupled, NADH absorbance at 340 nm)
Assay type: biochemical
Settings: PKM2 50 ng/well, ADP 0.7 mM, PEP 0.15 mM, no FBP in Reaction Mix
Description: • PKM2 stock enzyme solution was diluted in Reaction Buffer • 2 μL of compound was added into each well first, and then 180 μL of the Reaction Mix was added. • Reaction mixture with compound (without ADP) were incubated for 30 minutes at 4° C. • Plates were re-equilibrated to room temperature prior to adding 20 μL ADP to initiate the reaction. • Reaction progress was measured as changes in absorbance at 340 nm wavelength at room temperature (25° C.) Reaction Mix: PKM2 (50 ng/well), ADP (0.7 mM), PEP (0.15 mM), NADH (180 μM), LDH (2 units) in Reaction Buffer Reaction Buffer: 100 mM KCl, 50 mM Tris pH 7.5, 5 mM MgCl2, 1 mM DTT, 0.03% BSA.

Chain of PKM2 (P14618 whole entry): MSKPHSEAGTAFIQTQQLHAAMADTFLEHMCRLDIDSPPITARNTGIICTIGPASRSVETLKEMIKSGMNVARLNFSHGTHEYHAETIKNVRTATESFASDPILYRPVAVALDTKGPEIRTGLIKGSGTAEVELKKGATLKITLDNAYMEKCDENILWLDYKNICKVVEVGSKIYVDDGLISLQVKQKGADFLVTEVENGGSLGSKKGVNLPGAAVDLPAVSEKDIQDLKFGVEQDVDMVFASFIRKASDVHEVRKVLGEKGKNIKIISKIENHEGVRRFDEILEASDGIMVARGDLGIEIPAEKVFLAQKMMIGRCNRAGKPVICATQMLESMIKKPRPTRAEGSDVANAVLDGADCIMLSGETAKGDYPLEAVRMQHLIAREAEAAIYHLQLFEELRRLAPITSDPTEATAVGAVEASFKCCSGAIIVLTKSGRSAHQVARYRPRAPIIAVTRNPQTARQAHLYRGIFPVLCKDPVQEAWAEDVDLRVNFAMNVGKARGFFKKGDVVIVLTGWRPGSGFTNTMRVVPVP

Compound | AC50
Cc1cc(C)cc(NS(=O)(=O)c2cc3oc(=O)n(C)c3cc2C)c1 | < 1 µM
Cn1c(=O)oc2cc(S(=O)(=O)N3CCN(S(=O)(=O)c4ccc5c(c4)OCCO5)CC3)ccc21 | < 1 µM
Cc1cc2oc(=O)n(C)c2cc1NS(=O)(=O)c1cc(Cl)ccc1Cl | 10 to 50 µM
Cn1c(=O)sc2cc(S(=O)(=O)Nc3cccc(Cl)c3)ccc21 | < 1 µM
Cn1c(=O)oc2cc(S(=O)(=O)Nc3ccc(OC(F)(F)F)c(Br)c3)ccc21 | 1 to 10 µM
CCn1c(=O)oc2cc(S(=O)(=O)Nc3cc(Cl)ccc3OC)c(C)cc21 | 1 to 10 µM
Cn1c(=O)sc2cc(S(=O)(=O)Nc3ccc4ccccc4c3)ccc21 | < 1 µM
COc1ccc(Cl)cc1S(=O)(=O)N1CCN(S(=O)(=O)c2cc3c(cc2F)oc(=O)n3C)CC1 | < 1 µM
Cn1c(=O)sc2cc(S(=O)(=O)N3CCN(S(=O)(=O)c4ccccc4)CC3)ccc21 | 1 to 10 µM
Cn1c(=O)oc2cc(S(=O)(=O)Nc3ccccc3Cl)ccc21 | 1 to 10 µM
COCCn1c(=O)oc2cc(S(=O)(=O)Nc3ccc(F)c(C)c3)ccc21 | < 1 µM
CCn1c(=O)oc2cc(Cl)c(S(=O)(=O)Nc3ccc(F)cc3)cc21 | 10 to 50 µM
Cn1c(=O)sc2cc(S(=O)(=O)N3CCCN(S(=O)(=O)c4c(F)cccc4F)CC3)ccc21 | 1 to 10 µM
Cn1c(=O)sc2cc(S(=O)(=O)N3CCN(S(=O)(=O)c4c(F)cccc4F)CC3)ccc21 | < 1 µM
COc1ccc(Cl)cc1S(=O)(=O)N1CCN(S(=O)(=O)c2ccc3c(c2)oc(=O)n3C)CC1 | 1 to 10 µM
Cc1cc(C)cc(NS(=O)(=O)c2ccc3c(c2)oc(=O)n3Cc2ccccc2)c1 | 1 to 10 µM
CCc1cccc(NS(=O)(=O)c2ccc3c(c2)oc(=O)n3C)c1 | < 1 µM
Cn1c(=O)oc2cc(F)c(S(=O)(=O)Nc3ccc(F)cc3)cc21 | 1 to 10 µM
Cc1cc(C)cc(NS(=O)(=O)c2ccc3c(c2)oc(=O)n3CCc2ccccc2)c1 | 1 to 10 µM
Cc1cc2oc(=O)n(C)c2cc1S(=O)(=O)N1CCCN(c2ccc(C(F)(F)F)cn2)CC1 | 1 to 10 µM
Cn1c(=O)sc2cc(NS(=O)(=O)c3ccc(F)cc3)ccc21 | 10 to 50 µM
COc1ccc(Cl)cc1S(=O)(=O)Nc1ccc2sc(=O)n(C)c2c1 | 10 to 50 µM
COc1ccc(Cl)cc1S(=O)(=O)N1CCCN(S(=O)(=O)c2ccc3c(c2)sc(=O)n3C)CC1 | < 1 µM
Cn1c(=O)oc2cc(S(=O)(=O)Nc3ccccn3)ccc21 | 10 to 50 µM
Cc1cc2oc(=O)n(C)c2cc1S(=O)(=O)Nc1ccccc1F | 1 to 10 µM
Cn1c(=O)sc2cc(S(=O)(=O)Nc3cccc4ccccc34)ccc21 | 1 to 10 µM

Compound | AC50
CN(Cc1ccccc1)S(=O)(=O)c1ccc2c(c1)oc(=O)n2C | 1 to 10 µM
Cn1c(=O)oc2cc(S(=O)(=O)N3CCN(S(=O)(=O)c4c(F)cccc4F)CC3)ccc21 | 1 to 10 µM
COCCn1c(=O)oc2cc(S(=O)(=O)Nc3cccc(Cl)c3)ccc21 | < 1 µM
COc1ccc(Cl)cc1S(=O)(=O)Nc1cc2c(cc1C)oc(=O)n2C [drawing 27] | > 100 µM
Cn1c(=O)oc2cc(S(=O)(=O)Nc3c(F)cccc3F)ccc21 | 1 to 10 µM
CCn1c(=O)sc2ccc(NS(=O)(=O)c3cccs3)cc21 | 10 to 50 µM
COc1cc(NS(=O)(=O)c2ccc3c(c2)oc(=O)n3C)cc(OC)c1 | < 1 µM
Cc1cc(S(=O)(=O)Nc2cccc(Cl)c2)cc2oc(=O)n(C)c12 | < 1 µM
Cc1cc2oc(=O)n(C)c2cc1NS(=O)(=O)c1ccccc1C | 1 to 10 µM
COc1ccc(Cl)cc1S(=O)(=O)Nc1ccc2sc(=O)[nH]c2c1 | 1 to 10 µM
O=c1[nH]c2cc(NS(=O)(=O)c3cccs3)ccc2s1 | 10 to 50 µM
Cc1cc2oc(=O)n(C)c2cc1S(=O)(=O)Nc1ccc(Cl)cc1 | < 1 µM
Cc1ccc(COC(=O)N2CCN(S(=O)(=O)c3cc4oc(=O)n(C)c4cc3C)CC2)cc1 | 1 to 10 µM
Cc1cc2sc(=O)sc2cc1S(=O)(=O)Nc1ncc(C(F)(F)F)cc1Cl | 1 to 10 µM
Cc1cc2c(cc1S(=O)(=O)N1CCCN(c3ccc(C(F)(F)F)cn3)CC1)oc(=O)n2C | 1 to 10 µM
COc1ccc(C)cc1S(=O)(=O)Nc1ccc(NS(=O)(=O)c2ccc3c(c2)oc(=O)n3C)cc1 | 1 to 10 µM
Cc1cc(NS(=O)(=O)c2cc(CN3CCCCC3)c3c(c2)oc(=O)n3C)ccc1F | 1 to 10 µM
Cc1cc2sc(=O)sc2cc1S(=O)(=O)Nc1ccc(F)cc1 | 1 to 10 µM
Cc1cc2oc(=O)sc2cc1NS(=O)(=O)c1cccs1 | 10 to 50 µM
Cn1c(=O)oc2cc(S(=O)(=O)NC3CCCCC3)ccc21 | 1 to 10 µM
COc1ccc(Cl)cc1NS(=O)(=O)c1cc2oc(=O)n(C)c2cc1C | 1 to 10 µM
Cn1c(=O)oc2cc(S(=O)(=O)Nc3ccc(Cl)c(F)c3)ccc21 | 1 to 10 µM
Cn1c(=O)oc2cc(F)c(NS(=O)(=O)c3cccs3)cc21 | > 100 µM
COc1ccc(S(=O)(=O)Nc2cc3c(cc2Cl)oc(=O)n3C)cc1OC | 10 to 50 µM
CCn1c(=O)oc2cc(S(=O)(=O)Nc3ccc(F)cc3)c(C)cc21 | 10 to 50 µM
Cc1cc2oc(=O)n(C)c2cc1NS(=O)(=O)c1ccc(F)c(F)c1 | > 100 µM

Compound | AC50
Cc1cc(S(=O)(=O)Nc2ccc(F)c(Cl)c2)cc2oc(=O)n(C)c12 | < 1 µM
COc1ccc(Cl)cc1S(=O)(=O)N1CCN(S(=O)(=O)c2ccc3c(c2)sc(=O)n3C)CC1 | 1 to 10 µM
Cc1cc2c(cc1S(=O)(=O)Nc1ccccc1Cl)oc(=O)n2C | 1 to 10 µM
COc1ccc(Cl)cc1S(=O)(=O)Nc1ccc2oc(=O)[nH]c2c1 | 10 to 50 µM
CC(=O)c1ccc(S(=O)(=O)Nc2cc3c(cc2C)oc(=O)n3C)cc1 | 10 to 50 µM
CCn1c(=O)oc2cc(Cl)c(S(=O)(=O)Nc3ccccc3Cl)cc21 | > 100 µM
Cc1cc2oc(=O)n(C)c2cc1S(=O)(=O)Nc1ccc(OC(F)(F)F)c(Cl)c1 | 1 to 10 µM
Cc1cc(NS(=O)(=O)c2ccc3c(c2)sc(=O)n3C)ccc1F | < 1 µM
Cc1cc(C)cc(NS(=O)(=O)c2ccc3c(c2)sc(=O)n3C)c1 | < 1 µM
Cc1cc(C)cc(NS(=O)(=O)c2cc3c(cc2Cl)oc(=O)n3C)c1 | < 1 µM
CCn1c(=O)oc2cc(S(=O)(=O)Nc3ccc(F)cc3)ccc21 | 1 to 10 µM
Cc1cc2oc(=O)n(C)c2cc1NS(=O)(=O)c1cc(Cl)cc(Cl)c1 | 10 to 50 µM
O=c1[nH]c2cc(NS(=O)(=O)c3cccc(Cl)c3)ccc2s1 | 10 to 50 µM
Cc1cc2oc(=O)n(C)c2cc1S(=O)(=O)Nc1ccc(Cl)c(C(F)(F)F)c1 | 1 to 10 µM
Cn1c(=O)oc2cc(S(=O)(=O)Nc3ccc(F)c(C(F)(F)F)c3)ccc21 | < 1 µM
COc1ccc(S(=O)(=O)Nc2cc3[nH]c(=O)oc3cc2Cl)cc1OC | > 100 µM
COc1ccc(C)cc1S(=O)(=O)Nc1ccc2sc(=O)n(C)c2c1 | 1 to 10 µM
COCCn1c(=O)oc2cc(S(=O)(=O)Nc3cccc(Cl)c3)cc(C)c21 | < 1 µM
CCn1c(=O)oc2cc(S(=O)(=O)Nc3ccccc3Cl)ccc21 | 1 to 10 µM
Cc1cc(NS(=O)(=O)c2cc(C)c3c(c2)oc(=O)n3CCN2CCOCC2)ccc1F | 1 to 10 µM
Cc1cc2sc(=O)sc2cc1S(=O)(=O)Nc1ccccc1F | 10 to 50 µM
Cn1c(=O)oc2cc(F)c(S(=O)(=O)N3CCN(S(=O)(=O)c4c(F)cccc4F)CC3)cc21 | < 1 µM
Cc1ccc(NS(=O)(=O)c2cc3c(cc2C)oc(=O)n3C)cc1F | < 1 µM
O=c1sc2ccc(S(=O)(=O)Nc3ccc(Cl)cc3)cc2s1 | 1 to 10 µM
CCn1c(=O)sc2ccc(NS(=O)(=O)c3c(F)cccc3F)cc21 | 1 to 10 µM
Cc1cc2oc(=O)n(C)c2cc1NS(=O)(=O)c1cccc(Cl)c1 | 10 to 50 µM

Compound | AC50
Cn1c(=O)oc2cc(S(=O)(=O)Nc3ccc(F)c(Cl)c3)ccc21 | < 1 µM
Cc1cc2oc(=O)n(C)c2cc1S(=O)(=O)Nc1cc(F)cc(Cl)c1 | 1 to 10 µM
Cc1cc2oc(=O)n(C)c2cc1NS(=O)(=O)c1ccccc1Cl | 10 to 50 µM
COc1ccc(Cl)cc1NS(=O)(=O)c1cc2c(cc1Cl)oc(=O)n2C | 1 to 10 µM
Cn1c(=O)oc2cc(S(=O)(=O)Nc3ccc4ncccc4c3)ccc21 | 1 to 10 µM
COc1ccc(S(=O)(=O)N2CCN(S(=O)(=O)c3ccc4c(c3)sc(=O)n4C)CC2)cc1 | < 1 µM
Cc1cc2c(cc1S(=O)(=O)Nc1ccc(F)cc1)oc(=O)n2C | 1 to 10 µM
COc1ccc(Cl)cc1S(=O)(=O)Nc1cc2[nH]c(=O)oc2cc1C | 1 to 10 µM
Cn1c(=O)sc2cc(S(=O)(=O)Nc3ccc4ncccc4c3)ccc21 | 1 to 10 µM
Cn1c(=O)oc2cc(Cl)c(S(=O)(=O)Nc3ccccc3F)cc21 | 1 to 10 µM
Cn1c(=O)sc2cc(S(=O)(=O)N3CCCN(S(=O)(=O)c4ccccc4)CC3)ccc21 | 1 to 10 µM
Cc1ccc(NS(=O)(=O)c2cc3c(cc2C)oc(=O)n3C)cc1C | < 1 µM
COCCn1c(=O)oc2cc(S(=O)(=O)Nc3ccc(F)c(Cl)c3)cc(C)c21 | < 1 µM
CCn1c(=O)oc2cc(C)c(NS(=O)(=O)c3cc(Cl)ccc3OC)cc21 | 10 to 50 µM
O=c1[nH]c2cc(NS(=O)(=O)c3cccs3)ccc2o1 | 10 to 50 µM
COc1ccc(C)cc1S(=O)(=O)Nc1ccc2oc(=O)[nH]c2c1 | 10 to 50 µM
Cc1cc(S(=O)(=O)Nc2ccc(F)c(Cl)c2)cc2oc(=O)n(CCN(C)C)c12 | < 1 µM
Cc1cc(C)cc(NS(=O)(=O)c2ccc3c(c2)oc(=O)n3C)c1 | < 1 µM
CCn1c(=O)sc2ccc(NS(=O)(=O)c3cc(Cl)ccc3OC)cc21 | 1 to 10 µM
Cn1c(=O)oc2cc(F)c(S(=O)(=O)Nc3ccccc3)cc21 [drawing 56] | < 1 µM
Cc1cc(C)cc(NS(=O)(=O)c2cc3c(cc2F)oc(=O)n3C)c1 | < 1 µM
COc1ccc(Cl)cc1NS(=O)(=O)c1ccc2c(c1)oc(=O)n2C | 1 to 10 µM
CCn1c(=O)oc2cc(S(=O)(=O)Nc3ccccc3Cl)c(C)cc21 | 1 to 10 µM
